Measured values published in US6984656B2, “Core modified porphyrins” (priority 2001, dated 2006).
Like-named read-outs stand apart in the source and are kept apart here. Marks after values point to notes of the source that are not given here.

Tests used:
BFS1 sarcoma = conditions: cited from earlier work
Colo-26 cells = assay: Dark and light-induced toxicity toward Colo-26 cells in culture; type: cell-based, murine; conditions: for EC50: 4 J cm^−2 of 590-800 nm light
Method: In order to compare relative phototoxicity, the core-modified porphyrins of Table 1 were evaluated in culture for dark and light-induced toxicities toward Colo-26 cells, a murine colon carcinoma cell line.

[1] = Quantum yield for the generation of singlet oxygen; type: physicochemical; conditions: aqueous solution
mice = conditions: 150 mg/kg; cited from earlier work
Colo-26 tumors = assay: PDT against implanted Colo-26 tumors in BALB/c mice; type: in vivo
Method: Core-modified porphyrin 6 gave a PDT response in vivo with 694-nm light in BALB/c mice bearing Colo-26 tumors. Animals treated with photosensitizer 6 at 3.25 mg (3.0 μmol)/kg and light required 10.3±0.8 d to reach 400-mm^3 tumor volume, which was more than double the time for control animals (4.3±1.0 d) receiving neither drug nor light (P <0.01).
The animals were irradiated 4 h post-injection with 135 J cm^−2 of 694-nm red light from a dye laser (75 mW cm^−2 for 30 min). […] For comparison purposes, BALB/C mice bearing Colo-26 tumors were given 2.5 mg (4.0 μmol)/kg of Photofrin® as a 5% aqueous dextrose solution and were irradiated 24 h later with 135 J cm^−2 of 630-nm laser light at a power of 75 mW cm^−2 for PDT with Photofrin®.
Animals initially were given i.v. (tail vein) injections of sensitizer at various concentrations (0.05to 5.0 μmol/kg). Mice were restrained at various times thereafter without anesthesia in specially designed holders. Fischer 344 female rats were chemically restrained at various times thereafter. In both models, tumors or normal back skin were exposed to light from a xenon arc lamp with appropriate filters or to a dye laser tuned to the absorption maximum determined by in vivo reflectance measurements. Power density of delivered light typically fell in the range of 10-200 mW cm^−2 evenly distributed to a spot size of roughly 1.5 cm and measured by a radiometer. Several dose rates were explored to examine role/limitation of available oxygen on the photodynamic process. Intratumor temperatures were measured with an Omega HYP-O microthermocouple and, when necessary, a stream of nitrogen gas was used to keep intratumor temperatures below 37° C. Animals were examined and measured daily for the first 14 days post treatment and every other day thereafter until the tumors reached 400 mm^3 in mice or until the tumors double in size for Fischer 344 female rats or for 90 days. Tumor size were measured in two dimensions with a caliper. Time to 400 mm^3 or volume doubling times of tumors from control and PDT-treated groups (8-12 animals per group) were compared statistically using the SAS statistical program (SAS, Inc., Cary, N.C.). A P-value of <0.05 is considered significant. The degree of damage to the normal skin within the irradiation field also were noted. Disappearance of tumor with minimal damage to normal skin is the most desirable response. Animals are considered cured if no tumor regrowth occurs by 90 days. In all studies, three control groups were utilized in addition to the treatment group receiving both sensitizer and light: 1) a complete control receiving neither drug nor light, 2) a group receiving sensitizer only, and 3) a group receiving light only. Representative animals from each of the treatment groups were processed for histology immediately, one day, or two weeks after irradiation. Step sections through the tumor were used to define the boundaries of tumor cell damage and death as a function of distance from the skin surface.

[2] = Rate of photobleaching in phosphate-buffered saline; type: physicochemical; conditions: PBS; 570-750 nm light at 500 mW cm^−2; constant initial absorbance
Source text: One limitation of PDT dosimetry is the rate of photobleaching of the photosensitizer, which can be problematic with Photofrin® and even more problematic with the bacteriochlorins and the chlorins (such as HPPH).

[3] = in vivo; cited from earlier work
[4] = test system: R3230AC rat mammary adenocarcinoma cells; assay: Phototoxicity toward R3230AC cells in culture; type: cell-based; conditions: 10 μM, 24 h; 570-800 nm light, 0.9 J cm^−2; 24 h post-irradiation
Method: Similar results were obtained with R3230AC rat mammary adenocarcinoma cells in vitro. […] Light-treated cells and dark controls were incubated for 24 h and cell survival was determined. The surviving fraction, 24 h post-irradiation, is shown graphically in FIG. 4c.

[5] = Single-photon quantum yield for fluorescence; type: physicochemical; conditions: for quantum yield for fluorescence φF (± σ): one-photon, standard TPPS4 in water; for emissiveness relative to dithiaporphyrin analogue: 7 vs 6, 10 vs DH-82
Source text: In vivo fluorescence techniques have had significant impact on the development of PDT with respect to the pharmacokinetics of sensitizers and to PDT dosimetry. Photofrin® has been used in fluorescent diagnostics and the fluorescence of TPPS4 has been extensively studied. […] The quantum yield standard used in these studies was a freshly prepared solution of TPPS4 (φF =0.12) dissolved in water.

BALB/c mice = assay: Preliminary toxicity, single intravenous injection in BALB/c mice
two tumor cell lines = assay: Phototoxicity in two tumor cell lines in vitro; type: cell-based
Method: The topological and chemical properties of dichalcogenaporphyrins impart unexpected biological properties relative to the corresponding porphyrin derivatives. 5,10,15,20-tetrakis(4-sulfonatophenyl)-21-thiaporphyrin 8 and 21-selenaporphyrin 9 (FIG. 13) were prepared and evaluated the phototoxicity in two tumor cell lines in vitro.

[6] = 24 h incubation in dark, survival 24 h later, read-out: effective concentration to give 50% cell-kill of Colo-26 cells in vitro (EC50)
[7] = read-out: EC50 against Colo-26 cells
[8] = 135 J cm^−2, DH-105 2.5, DH-82 0.13, MA-99 0.15 mg/kg, 694 nm 4 h post-injection, Photofrin® 2.5 mg/kg, 630 nm 24 h

**Q.** Which skin photosensitization (BFS1 sarcoma; animals irradiated 24 h post-injection) does the source give for `O=S(=O)([O-])c1ccc(-c2c3nc(c(-c4ccc(S(=O)(=O)[O-])cc4)c4ccc([se]4)c(-c4ccc(S(=O)(=O)[O-])cc4)c4nc(c(-c5ccc(S(=O)(=O)[O-])cc5)c5ccc2[nH]5)C=C4)C=C3)cc1.[Na+].[Na+].[Na+].[Na+]` [sulfonated 2] here?
**A.** The skin photosensitization was “no skin photosensitization was observed”.

**Q.** For `O=S(=O)(O)c1ccc(-c2c3nc(c(-c4ccc(S(=O)(=O)O)cc4)c4ccc([nH]4)c(-c4ccc(S(=O)(=O)O)cc4)c4nc(c(-c5ccc(S(=O)(=O)O)cc5)c5ccc2[nH]5)C=C4)C=C3)cc1` [TPPS4, 5,10,15,20-Tetrakis (4-sulfonato-phenyl)porphyrin, reference compound], which EC50 (Colo-26 cells; [6]) is on record?
**A.** The EC50 was 125000 nM.

**Q.** What about the “quantum yield for the generation of singlet oxygen φ(^1O2)” value (from here on “quantum yield for the generation”) [1] of the same molecule?
**A.** The value was 0.71^b.

**Q.** What about the “toxicity at high concentrations” value (mice) of the same molecule?
**A.** Its value is “neurotoxicity”.

**Q.** And the “time to reach 400-mm^3 tumor volume” value (Colo-26 tumors; TPPS4 at 10 mg/kg)?
**A.** Its value is 6.7 ± 1.1 days.

**Q.** Which EC50 (Colo-26 cells; [6]) does the source give for `O=S(=O)([O-])c1ccc(-c2c3nc(c(-c4ccc(C(F)(F)F)cc4)c4ccc(s4)c(-c4ccc(C(F)(F)F)cc4)c4nc(c(-c5ccc(S(=O)(=O)[O-])cc5)c5ccc2s5)C=C4)C=C3)cc1.[Na+].[Na+]` [Compound 13] here?
**A.** Its EC50 is > 100000 nM.

**Q.** And the “rate of photobleaching (kbleach)” value [2]?
**A.** Its value is 0.13 ± 0.02 × 10^4 s^−1.

**Q.** Which skin photosensitivity [3] does the source give for `CC(=O)[O-].CC(=O)[O-].CCc1c(CC)c2cc3nc(cnc4cc(OCCOCCOCCOC)c(OCCOCCOCCOC)cc4ncc4nc(cc1[n-]2)C(CCCO)=C4C)C(C)=C3CCCO.O.[Lu+3]` [Lu-Tex, lutetium texaphyrin] here?
**A.** The skin photosensitivity was “minimal skin photosensitivity”.

**Q.** For benzoporphyrin derivative, which “duration of skin photosensitivity” value [3] is on record?
**A.** Its value is 3 to 5 days.

**Q.** What does the source list for `O=S(=O)([O-])c1ccc(-c2c3nc(c(-c4ccc(F)cc4)c4ccc([se]4)c(-c4ccc(F)cc4)c4nc(c(-c5ccc(S(=O)(=O)[O-])cc5)c5ccc2[se]5)C=C4)C=C3)cc1.[Na+].[Na+]` [DH-105]?
**A.** phototoxicity relative to Photofrin® toward R3230AC cells (surviving fraction, FIG. 4c) [4]: more phototoxic than Photofrin®; fluorescence emission detected [5]: no detectable emission; quantum yield for fluorescence φF (± σ) [5]: <10^−4; EC50 (Colo-26 cells; [7]): 7900 nM; rate of photobleaching (kbleach) [2]: 1.44 ± 0.03 × 10^4 s^−1; quantum yield for the generation of singlet oxygen φ(^1O2) [1]: 0.55 ± 0.02; gross abnormalities in organs and tissues after sacrifice (BALB/c mice; 10 mg/kg i.v., after 90 days): no gross abnormalities were noted; toxicity and morbidity (BALB/c mice; 10 mg/kg, followed 90 days post-injection, normal vivarium light): neither toxicity nor morbidity was observed; cures (no tumor regrowth 90 days post-treatment) (Colo-26 tumors; [8]): three cures; mean time to 400 mm^3 of the animals not cured (Colo-26 tumors; [8]): 17 ± 3 days

**Q.** For `O=S(=O)([O-])c1ccc(-c2c3nc(c(-c4ccc(S(=O)(=O)[O-])cc4)c4ccc([se]4)c(-c4ccc(S(=O)(=O)[O-])cc4)c4nc(c(-c5ccc(S(=O)(=O)[O-])cc5)c5ccc2[nH]5)C=C4)C=C3)cc1.[Na+].[Na+].[Na+].[Na+]` [Compound 9], which “phototoxicity in two tumor cell lines” value (two tumor cell lines) is on record?
**A.** The value was “Neither 21-core-modified porphyrin displayed significant phototoxicity”.

**Q.** With `O=C([O-])COc1ccc(-c2c3nc(c(-c4ccccc4)c4ccc(s4)c(-c4ccccc4)c4nc(c(-c5ccc(OCC(=O)[O-])cc5)c5ccc2s5)C=C4)C=C3)cc1.[Na+].[Na+]` [Compound 15] as the molecule, how does the EC50 (Colo-26 cells; [6]) read?
**A.** Its EC50 is 150 nM.

**Q.** And the “rate of photobleaching (kbleach)” value [2]?
**A.** Its value is 0.18 ± 0.02 × 10^4 s^−1.

**Q.** With `CN(C)c1ccc(-c2c3nc(c(-c4ccc(S(=O)(=O)[O-])cc4)c4ccc(s4)c(-c4ccc(S(=O)(=O)[O-])cc4)c4nc(c(-c5ccc(N(C)C)cc5)c5ccc2s5)C=C4)C=C3)cc1.[Na+].[Na+]` [Compound 14] as the molecule, how does the “phototoxicity relative to Photofrin® toward R3230AC cells (surviving fraction, FIG. 4c)” value [4] read?
**A.** The value was “more phototoxic than Photofrin®”.

**Q.** What about the “quantum yield for fluorescence φF (± σ)” value [5] of the same molecule?
**A.** Its value is <10^−4.

**Q.** And the EC50 (Colo-26 cells; [6])?
**A.** Its EC50 is 600 nM.

**Q.** And the “rate of photobleaching (kbleach)” value [2]?
**A.** The value was 0.77 ± 0.04 × 10^4 s^−1.

**Q.** And the “quantum yield for the generation” value [1]?
**A.** Its value is 0.60 ± 0.02.

**Q.** Which “emissiveness relative to dithiaporphyrin analogue” value [5] does the source give for `O=S(=O)(O)c1ccc(-c2c3nc(c(-c4ccc(S(=O)(=O)O)cc4)c4ccc([se]4)c(-c4ccc(S(=O)(=O)O)cc4)c4nc(c(-c5ccc(S(=O)(=O)O)cc5)c5ccc2[se]5)C=C4)C=C3)cc1` [Compound 7] here?
**A.** The value was 10%.

**Q.** What about the “quantum yield for fluorescence φF (± σ)” value [5] of the same molecule?
**A.** Its value is 8.9 (± 0.4) × 10^−4.

**Q.** What about the EC50 (Colo-26 cells; [6]) of the same molecule?
**A.** Its EC50 is > 100000 nM.

**Q.** What does the source list for `O=S(=O)([O-])c1ccc(-c2c3nc(c(-c4ccc(F)cc4)c4ccc(s4)c(-c4ccc(F)cc4)c4nc(c(-c5ccc(S(=O)(=O)[O-])cc5)c5ccc2[se]5)C=C4)C=C3)cc1.[Na+].[Na+]` [Compound 10]?
**A.** emissiveness relative to dithiaporphyrin analogue [5]: 2%; quantum yield for fluorescence φF (± σ) [5]: 1.4 (± 0.1) × 10^−4; EC50 (Colo-26 cells; [6]): 2100 nM; quantum yield for the generation of singlet oxygen φ(^1O2) [1]: 0.65 ± 0.01

**Q.** What does the source list for `CCCCCCOC(C)c1c(C)c2cc3nc(c4c5[nH]c(cc6nc(cc1[nH]2)C(C)=C6CC)c(C)c5C(=O)C4)[C@@H](CCC(=O)O)[C@@H]3C` (stereo partly drawn) [HPPH, reference compound]?
**A.** EC50 (Colo-26 cells; [7]): 300 nM; EC50 fold lower than for Photofrin® (Colo-26 cells; Colo-26 cells, 590-800 nm light): 30 fold

**Q.** Which EC50 (Colo-26 cells; [6]) does the source give for “5,10,15,20-tetrakis(4-sulfonatophenyl)-21-thiaporphyrin [Compound 8]” here?
**A.** Its EC50 is > 100000 nM.

**Q.** What about the “phototoxicity in two tumor cell lines” value (two tumor cell lines) of the same molecule?
**A.** Its value is “Neither 21-core-modified porphyrin displayed significant phototoxicity”.

**Q.** What about the “quantum yield for the generation” value [1] of the same molecule?
**A.** Its value is 0.80 ± 0.02.

**Q.** What does the source list for `O=S(=O)([O-])c1ccc(-c2c3nc(c(-c4ccc(F)cc4)c4ccc([se]4)c(-c4ccc(F)cc4)c4nc(c(-c5ccc(S(=O)(=O)[O-])cc5)c5ccc2s5)C=C4)C=C3)cc1.[Na+].[Na+]` [Compound 11]?
**A.** EC50 (Colo-26 cells; [6]): 1200 nM; quantum yield for the generation of singlet oxygen φ(^1O2) [1]: 0.64 ± 0.01

**Q.** For `O=S(=O)([O-])c1ccc(-c2c3nc(c(-c4ccc(S(=O)(=O)[O-])cc4)c4ccc(s4)c(-c4ccc(S(=O)(=O)[O-])cc4)c4nc(c(-c5ccc(S(=O)(=O)[O-])cc5)c5ccc2[nH]5)C=C4)C=C3)cc1.[Na+].[Na+].[Na+].[Na+]` [sulfonated 1], which “efficacy in vivo relative to chlorin e6” value (BFS1 sarcoma; BFS1 sarcoma-bearing mice) is on record?
**A.** The value was “comparable to chlorin e6 for efficacy”.
